“Also recorded” adds a separate entry of the source.
How the values were obtained:
rat = test: Tail-flick latency (TFL) test of morphine analgesia and tolerance; type: in vivo; details: for Analgesic effect of the drug itself: administered alone, without morphine; for Development versus behavioral expression of morphine tolerance (tail flick latency): co-administered with morphine for several days, then morphine alone on the final day; for Effect on analgesic effect of morphine given subsequently: drug in 10% cyclodextrin vehicle for 4 days, morphine alone on day 5; for Reversal of established morphine tolerance: morphine given for varying periods, then drug added
Method: Analgesic effectiveness is typically studied using the tail-flick test, where a hot light is shined on a rat's tail and the time required for the rat to move (“flick”) its tail recorded (TFL, or tail flick latency).
To determine whether GLEEVEC® (imatinib) blocked the development or expression of tolerance, morphine and GLEEVEC® (imatinib) was co-administered for 4 days, and then on day 5 morphine alone was administered.
To determine whether IRESSA® (gefitinib) blocked the development or expression of tolerance, morphine and IRESSA® (gefitinib) was co-administered for 4 days, and then on day 5 morphine alone was administered.
(§1) A drug can inhibit the expression of narcotic tolerance if it is analgesic itself or if previous drug administration alters subsequent narcotic analgesia. To determine whether either of these possibilities were the case, animals were treated animals with either the cyclodextrin-based vehicle used to solubilize GLEEVEC® (imatinib) (10% CDSBE) or GLEEVEC® (imatinib) in vehicle for 4 days, and then on the fifth day were given morphine alone.
as §1, with “altered” for “alters subsequent”, “IRESSA® (gefitinib)” for “GLEEVEC® (imatinib)”, “CAPTISOL® (sulfobutylether-β-cyclodextrin))” for “CDSBE)”
Another possible explanation for apparent inhibition of opioid tolerance would be that GLEEVEC® (imatinib) or IRESSA® (gefitinib) could alter morphine pharmacokinetics, causing a different time course of analgesia with co-administration.
Next it was desirable to determine if GLEEVEC® (imatinib) could reverse morphine tolerance. NMDA antagonists, which are known to inhibit the development of morphine tolerance, can only partially reverse morphine tolerance, and cannot reverse established tolerance. In addition, NMDA antagonists are highly toxic (many are chemically related to PCP), which also severely limits their clinical use. To determine whether GLEEVEC® (imatinib) could reverse established morphine tolerance, morphine was given for varying periods of time, and then GLEEVEC® (imatinib) was added. […] On day 7, morphine alone was given to all groups.

[1] = test system: animals made physically dependent upon morphine; test: Morphine physical dependence, naloxone-precipitated withdrawal; type: in vivo; details: morphine pellets, drug systemically twice daily
From the text: Animals were pelleted with continuous release morphine pellets, and treated with GLEEVEC® (imatinib) systemically twice daily. Withdrawal was precipitated by injection of naloxone.

[2] = test system: rats that have undergone sciatic nerve ligation; test: Sciatic nerve ligation model of neuropathic pain, Von Frey hair testing; type: in vivo; details: for Effect upon allodynia / analgesia (Von Frey hairs): sciatic nerve ligation, alone or co-administered as labelled
From the text: (§2) To test the methods of treatment presented herein, we use the sciatic nerve ligation model of Chung et al. (model of neuropathic pain). Chung, J. M., H. K. Kim, and K. Chung, Segmental Spinal Nerve Ligation Model Of Neuropathic Pain, Methods Mol Med, 2004. 99: p. 35-45. Animals undergo this ligation procedure, are allowed to recover, and tested for pain sensitivity using Von Frey hairs and/or pressure testing.
as §2, with “spinal nerve ligation model of neuropathic pain.” for “Spinal Nerve Ligation Model Of Neuropathic Pain,”

PDGF receptor = details: cited from earlier work
[3] = test system: alcohol dependent animals; details: cited from earlier work
PDGFR-beta = PDGFR-beta tyrosine phosphorylation in cell lines (immunoprecipitation, Western blotting with PY-20); type: cell-based
Method: Cells were treated with morphine, gabapentin, morphine and gabapentin, or water for 40 minutes. Cells were then washed, lysed, and immunoprecipitation was performed using a PDGFR-beta antibody. Western blotting was then performed using PY-20 antibody, which detects tyrosine phosphorylation. Blots were then stripped and re-probed with PDGFR-beta antibody to control for the amount of PDGFR-beta loaded in each lane.

| SMILES | Analgesic effect of the drug itself (rat) | Inhibition of tolerance when co-administered with morphine from the beginning (rat) | Development versus behavioral expression of morphine tolerance (tail flick latency) (rat) | Effect on analgesic effect of morphine given subsequently (rat) | Reversal of established morphine tolerance (rat) | Inhibition of morphine tolerance (rat; spinally administered, initial studies) | Weight loss in precipitated withdrawal [1] | Withdrawal behaviors in precipitated withdrawal [1] | Effect upon allodynia / analgesia (Von Frey hairs) [2] | Inhibition of receptor tyrosine kinase activity of the PDGF receptor (PDGF receptor) | Doses required to block behavioral expression of tolerance, relative to GLEEVEC (imatinib) (rat; rat, in vivo) [fold higher] | Alcohol intake and self-administration ([3]; alcohol dependent animals) | Anxiogenic effects of alcohol withdrawal ([3]; alcohol dependent rats) | Block of morphine-induced PDGFR-beta phosphorylation / PDGFR activation (PDGFR-beta; co-administration with morphine, 40 minutes) | Number of doses to achieve peak effect ([2]; sciatic nerve ligation model) | Time of peak analgesic effect (rat; time course on 4 consecutive days) [min] | Increase in PDGFR-beta phosphorylation (PDGFR-beta; cells treated for 40 minutes) [%] |
| --- | --- | --- | --- | --- | --- | --- | --- | --- | --- | --- | --- | --- | --- | --- | --- | --- | --- |
| Cc1ccc(NC(=O)c2ccc(CN3CCN(C)CC3)cc2)cc1Nc1nccc(-c2cccnc2)n1 [GLEEVEC® (imatinib), imatinib] | do not exhibit analgesic effects; also recorded: neither GLEEVEC® (imatinib) nor vehicle was analgesic when administered alone; also recorded: no analgesic effect at any time point | inhibited tolerance | inhibits the behavioral expression, not the development of opioid tolerance; also recorded: blocked the behavioral expression of morphine tolerance; also recorded: inhibited the expression of tolerance alone | do not exhibit analgesic effects, or interfere with the analgesic effects of morphine; also recorded: did not alter the analgesic effect of morphine given subsequently on day 5 | completely reverses and inhibits the behavioral expression of tolerance; also recorded: completely reversed tolerance | inhibited morphine tolerance | without affecting weight loss; also recorded: Weight loss was not affected | reduces the behavioral expression of paw shakes and wet dog shakes; also recorded: withdrawal behaviors such as teeth chattering and wet dog shakes were reduced | neither morphine nor GLEEVEC® (imatinib) alone have analgesic properties; also recorded: had no effect upon allodynia | inhibit the receptor tyrosine kinase activity of the PDGF receptor |  |  |  |  |  |  |  |
| COc1cc2ncnc(Nc3ccc(F)c(Cl)c3)c2cc1OCCCN1CCOCC1 [IRESSA® (gefitinib), gefitinib] | do not exhibit analgesic effects; also recorded: neither IRESSA® (gefitinib) nor vehicle was analgesic when administered alone |  | inhibits the development, not the behavioral expression of opioid tolerance; also recorded: inhibited the development of morphine tolerance | do not exhibit analgesic effects, or interfere with the analgesic effects of morphine; also recorded: did not alter the analgesic effect of morphine given on day 5 |  |  |  |  | neither morphine nor IRESSA® (gefitinib) alone have analgesic properties; also recorded: had no effect upon allodynia |  |  |  |  |  |  |  |  |
| NCC1(CC(=O)O)CCCCC1 [gabapentin] | not analgesic itself | blocks tolerance | blocks the behavioral expression of tolerance |  | reverses established tolerance |  |  |  | does not cause complete analgesia |  | 10 to 100 | reduce alcohol intake and self-administration | reversing anxiogenic effects of alcohol withdrawal | blocked by co-administration of gabapentin | takes several doses to achieve its peak effect |  |  |
| CN1CC[C@]23c4c5ccc(O)c4O[C@H]2[C@@H](O)C=C[C@H]3[C@H]1C5 [morphine] |  |  |  |  |  |  |  |  | neither morphine nor IRESSA® (gefitinib) alone have analgesic properties; also recorded: neither morphine nor GLEEVEC® (imatinib) alone have analgesic properties; also recorded: had no effect upon allodynia |  |  |  |  |  |  | 30 | 40 |
